From patent US8143263B2, “Therapeutic agents” (Astrazeneca AB, priority 2008, dated 2012)

What follows are molecules tested against T1, recombinant human pancreatic GLK (Homo sapiens, UniProt P35557) (assay: biochemical).
T1 sequence (P35557 1-465): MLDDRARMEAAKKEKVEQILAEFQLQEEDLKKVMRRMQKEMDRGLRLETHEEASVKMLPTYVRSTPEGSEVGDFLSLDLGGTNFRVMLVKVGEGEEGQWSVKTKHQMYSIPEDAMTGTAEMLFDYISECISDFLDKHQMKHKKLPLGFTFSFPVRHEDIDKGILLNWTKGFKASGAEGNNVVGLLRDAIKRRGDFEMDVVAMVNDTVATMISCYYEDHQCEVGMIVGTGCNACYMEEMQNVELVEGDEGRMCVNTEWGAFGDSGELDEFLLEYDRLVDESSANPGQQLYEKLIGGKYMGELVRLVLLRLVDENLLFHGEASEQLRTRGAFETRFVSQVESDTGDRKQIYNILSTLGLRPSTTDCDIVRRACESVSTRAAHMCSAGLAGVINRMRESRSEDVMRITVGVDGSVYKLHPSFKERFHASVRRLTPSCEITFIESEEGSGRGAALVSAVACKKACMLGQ

With CC(C)OC[C@H](Oc1ncnc2c1cnn2-c1ncccc1Cl)C(=O)Nc1ccc(C#N)cn1 [Example 127j, (2S)-2-[1-(3-chloro-2-pyridyl)pyrazolo[4,5-e]pyrimidin-4-yl]oxy-N-(5-cyano-2-pyridyl)-3-isopropoxy-propanamide] as the molecule, how does the EC50 read?
Its EC50 is 580 nM.

CC(C)OC[C@H](Oc1ncnc2c1cnn2-c1ncccc1Cl)C(=O)Nc1ccccn1 [Example 127k, (2S)-2-[1-(3-chloro-2-pyridyl)pyrazolo[4,5-e]pyrimidin-4-yl]oxy-3-isopropoxy-N-(2-pyridyl)propanamide] was tested. Which EC50 did it give?
Its EC50 is 560 nM.

How did the EC50 turn out when CC(C)OC[C@H](Oc1ncnc2c1cnn2-c1ncccc1Cl)C(=O)Nc1ccc(F)cn1 [Example 127l, (2S)-2-[1-(3-chloro-2-pyridyl)pyrazolo[4,5-e]pyrimidin-4-yl]oxy-N-(5-fluoro-2-pyridyl)-3-isopropoxy-propanamide] was run?
Its EC50 is 500 nM.

With CCOC[C@H](Oc1ncnc2c1cnn2-c1ccncc1C)C(=O)Nc1ccc(Cl)cn1 [Example 128, (2S)—N-(5-Chloropyridin-2-yl)-3-ethoxy-2-[1-(3-methylpyridin-4-yl)pyrazolo[4,5-e]pyrimidin-4-yl]oxypropanamide] as the molecule, how does the EC50 read?
The EC50 was 920 nM.

With CCOC[C@H](Oc1ncnc2c1cnn2-c1ncccc1C)C(=O)Nc1ccc(Cl)cn1 [Example 128a, (2S)—N-(5-chloropyridin-2-yl)-3-ethoxy-2-(1-(3-methylpyridin-2-yl)-1H-pyrazolo[3,4-d]pyrimidin-4-yloxy)propanamide] as the molecule, how does the EC50 read?
Its EC50 is 620 nM.

With Cc1ccc(NC(=O)[C@H](COC(C)C)Oc2ncnc3c2cnn3-c2ccccc2S(C)(=O)=O)nc1 [Example 129, (2S)-3-isopropoxy-N-(5-methylpyridin-2-yl)-2-(1-(2-(methylsulfonyl)phenyl)-1H-pyrazolo[3,4-d]pyrimidin-4-yloxy)propanamide] as the molecule, how does the EC50 read?
The EC50 was 1300 nM.

CCOC[C@H](Oc1ncnc2c1cnn2-c1ccccc1S(C)(=O)=O)C(=O)Nc1ccc(Cl)cn1 [Example 130, (2S)—N-(5-chloropyridin-2-yl)-3-ethoxy-2-(1-(2-(methylsulfonyl)phenyl)-1H-pyrazolo[3,4-d]pyrimidin-4-yloxy)propanamide] was tested. Which EC50 did it give?
Its EC50 is 1100 nM.

How did the EC50 turn out when Cc1ccc(NC(=O)[C@H](CCCO)Oc2ncnc3c2cnn3-c2ncccc2Cl)nc1 [Example 131, (2S)-2-[1-(3-chloropyridin-2-yl)pyrazolo[4,5-e]pyrimidin-4-yl]oxy-5-hydroxy-N-(5-methylpyridin-2-yl)pentanamide] was run?
Its EC50 is 410 nM.

Which EC50 does the source give for CCOC[C@H](Oc1ncnc2c1cnn2-c1ccccc1C(F)(F)F)C(=O)Nc1ccc(C#N)cn1 [Example 132, (2S)—N-(5-cyanopyridin-2-yl)-3-ethoxy-2-[1-[2-(trifluoromethyl)phenyl]pyrazolo[4,5-e]pyrimidin-4-yl]oxypropanamide] here?
The EC50 was 470 nM.

For CCOC[C@H](Oc1ncnc2c1cnn2-c1ccccc1C(F)(F)F)C(=O)Nc1cnc(C)cn1 [Example 133, (2S)-3-ethoxy-N-(5-methylpyrazin-2-yl)-2-[1-[2-(trifluoromethyl)phenyl]pyrazolo[4,5-e]pyrimidin-4-yl]oxypropanamide], which EC50 is on record?
The EC50 was 1100 nM.

How did the EC50 turn out when CCOC[C@H](Oc1ncnc2c1cnn2-c1ncccc1C(F)(F)F)C(=O)Nc1ccc(Cl)cn1 [Example 134, (2S)—N-(5-chloropyridin-2-yl)-3-ethoxy-2-[1-[3-(trifluoromethyl)pyridin-2-yl]pyrazolo[4,5-e]pyrimidin-4-yl]oxypropanamide] was run?
Its EC50 is 440 nM.

With Cc1ccc(NC(=O)[C@H](COC(C)C)Oc2ncnc3c2cnn3-c2ccncc2C)nc1 [Example 135, (2S)—N-(5-methylpyridin-2-yl)-2-[1-(3-methylpyridin-4-yl)pyrazolo[4,5-e]pyrimidin-4-yl]oxy-3-propan-2-yloxypropanamide] as the molecule, how does the EC50 read?
Its EC50 is 5900 nM.

Cc1cnc(NC(=O)[C@H](COC2CCC2)Oc2ncnc3c2cnn3-c2ccncc2C)cn1 [Example 136, (2S)-3-cyclobutyloxy-N-(5-methylpyrazin-2-yl)-2-[1-(3-methylpyridin-4-yl)pyrazolo[4,5-e]pyrimidin-4-yl]oxypropanamide] was tested. Which EC50 did it give?
Its EC50 is 2100 nM.

For Cc1cnc(NC(=O)[C@H](COC2CCC2)Oc2ncnc3c2cnn3-c2ncccc2C(F)(F)F)cn1 [Example 137, (2S)-3-cyclobutyloxy-N-(5-methylpyrazin-2-yl)-2-[1-[3-(trifluoromethyl)pyridin-2-yl]pyrazolo[4,5-e]pyrimidin-4-yl]oxypropanamide], which EC50 is on record?
Its EC50 is 350 nM.

Cc1cnc(NC(=O)[C@H](COC2CCC2)Oc2ncnc3c2cnn3-c2ncc(Cl)cc2C(F)(F)F)cn1 [Example 138, (2S)-2-[1-[5-chloro-3-(trifluoromethyl)pyridin-2-yl]pyrazolo[4,5-e]pyrimidin-4-yl]oxy-3-cyclobutyloxy-N-(5-methylpyrazin-2-yl)propanamide] was tested. Which EC50 did it give?
Its EC50 is 810 nM.

How did the EC50 turn out when CCOC[C@H](Oc1ncnc2c1cnn2-c1ncccc1Cl)C(=O)Nc1ccc(S(C)(=O)=O)cn1 [Example 139, (2S)-2-(1-(3-chloropyridin-2-yl)-1H-pyrazolo[3,4-d]pyrimidin-4-yloxy)-3-ethoxy-N-(5-(methylsulfonyl)pyridin-2-yl)propanamide] was run?
The EC50 was 1400 nM.

For Cc1cnc(NC(=O)[C@H](COC2CCC2)Oc2ncnc3c2cnn3-c2ccccc2S(C)(=O)=O)cn1 [Example 140, (2S)-3-cyclobutoxy-N-(5-methylpyrazin-2-yl)-2-(1-(2-(methylsulfonyl)phenyl)-1H-pyrazolo[3,4-d]pyrimidin-4-yloxy)propanamide], which EC50 is on record?
The EC50 was 1200 nM.

Cc1cnc(NC(=O)[C@H](COC2CCC2)Oc2ncnc3c2cnn3-c2ncccc2C)cn1 [Example 141, (2S)-3-cyclobutoxy-N-(5-methylpyrazin-2-yl)-2-(1-(3-methylpyridin-2-yl)-1H-pyrazolo[3,4-d]pyrimidin-4-yloxy)propanamide] was tested. Which EC50 did it give?
The EC50 was 340 nM.

For Cc1cnc(NC(=O)[C@H](COC2CCC2)Oc2ncnc3c2cnn3-c2ccccc2)cn1 [Example 142, (S)-3-cyclobutoxy-N-(5-methylpyrazin-2-yl)-2-(1-phenyl-1H-pyrazolo[3,4-d]pyrimidin-4-yloxy)propanamide], which EC50 is on record?
Its EC50 is 2400 nM.

For Cc1ccc(NC(=O)[C@H](CCO)Oc2ncnc3c2cnn3-c2ncccc2Cl)nc1 [Example 143, (2S)-2-[1-(3-chloro-2-pyridyl)pyrazolo[4,5-e]pyrimidin-4-yl]oxy-4-hydroxy-N-(5-methyl-2-pyridyl)butanamide], which EC50 is on record?
The EC50 was 180 nM.

How did the EC50 turn out when Cc1cnc(NC(=O)[C@H](CCO)Oc2ncnc3c2cnn3-c2ncccc2Cl)cn1 [Example 143a, (2S)-2-[1-(3-chloro-2-pyridyl)pyrazolo[4,5-e]pyrimidin-4-yl]oxy-4-hydroxy-N-(5-methylpyrazin-2-yl)butanamide] was run?
The EC50 was 2600 nM.

With O=C(Nc1ccc(Cl)cn1)[C@H](CCO)Oc1ncnc2c1cnn2-c1ncccc1Cl [Example 143b, (2S)-N-(5-chloro-2-pyridyl)-2-[1-(3-chloro-2-pyridyl)pyrazolo[4,5-e]pyrimidin-4-yl]oxy-4-hydroxy-butanamide] as the molecule, how does the EC50 read?
The EC50 was 260 nM.

Which EC50 does the source give for O=C(Nc1ccccn1)[C@H](CCO)Oc1ncnc2c1cnn2-c1ncccc1Cl [Example 143c, (2S)-2-[1-(3-chloro-2-pyridyl)pyrazolo[4,5-e]pyrimidin-4-yl]oxy-4-hydroxy-N-(2-pyridyl)butanamide] here?
The EC50 was 610 nM.

Which EC50 does the source give for O=C(Nc1ccc(F)cn1)[C@H](CCO)Oc1ncnc2c1cnn2-c1ncccc1Cl [Example 143d, (2S)-2-[1-(3-chloro-2-pyridyl)pyrazolo[4,5-e]pyrimidin-4-yl]oxy-N-(5-fluoro-2-pyridyl)-4-hydroxy-butanamide] here?
The EC50 was 590 nM.

For N#Cc1ccc(NC(=O)[C@H](CCO)Oc2ncnc3c2cnn3-c2ncccc2Cl)nc1 [Example 143e, (2S)-2-[1-(3-chloro-2-pyridyl)pyrazolo[4,5-e]pyrimidin-4-yl]oxy-N-(5-cyano-2-pyridyl)-4-hydroxy-butanamide], which EC50 is on record?
The EC50 was 530 nM.

O=C(Nc1ccncn1)[C@H](CCO)Oc1ncnc2c1cnn2-c1ncccc1Cl [Example 143f, (2S)-2-[1-(3-chloro-2-pyridyl)pyrazolo[4,5-e]pyrimidin-4-yl]oxy-4-hydroxy-N-pyrimidin-4-yl-butanamide] was tested. Which EC50 did it give?
The EC50 was 980 nM.

Cc1ccc(NC(=O)[C@H](COC2CCC2)Oc2ncnc3c2cnn3-c2nccnc2C)nc1 [Example 144, (2S)-3-(cyclobutoxy)-2-[1-(3-methylpyrazin-2-yl)pyrazolo[4,5-e]pyrimidin-4-yl]oxy-N-(5-methyl-2-pyridyl)propanamide] was tested. Which EC50 did it give?
Its EC50 is 510 nM.

For Cc1ccc(NC(=O)[C@H](CCO)Oc2ncnc3c2cnn3-c2ccccc2Cl)nc1 [Example 145, (2S)-2-[1-(2-chlorophenyl)pyrazolo[4,5-e]pyrimidin-4-yl]oxy-4-hydroxy-N-(5-methyl-2-pyridyl)butanamide], which EC50 is on record?
The EC50 was 230 nM.

With Cc1ccc(NC(=O)[C@H](COC(C)C)Oc2ncnc3c2cnn3-c2cccnc2C)nc1 [Example 146, (2S)-3-isopropoxy-N-(5-methyl-2-pyridyl)-2-[1-(2-methyl-3-pyridyl)pyrazolo[4,5-e]pyrimidin-4-yl]oxy-propanamide] as the molecule, how does the EC50 read?
The EC50 was 960 nM.

Which EC50 does the source give for CCOC[C@H](Oc1ncnc2c1cnn2-c1ncccc1Cl)C(=O)Nc1ccc(C(=O)N(C)C)cn1 [Example 147, 6-[[(2S)-2-[1-(3-chloro-2-pyridyl)pyrazolo[4,5-e]pyrimidin-4-yl]oxy-3-ethoxy-propanoyl]amino]-N,N-dimethyl-pyridine-3-carboxamide] here?
Its EC50 is 7800 nM.

Which EC50 does the source give for Cc1ccc(NC(=O)[C@H](COC(C)C)Oc2ncnc3c2cnn3-c2cnccc2C)nc1 [Example 148, (2S)-3-isopropoxy-N-(5-methyl-2-pyridyl)-2-[1-(4-methyl-3-pyridyl)pyrazolo[4,5-e]pyrimidin-4-yl]oxy-propanamide] here?
Its EC50 is 930 nM.
